This note sets out measurements from patent publication US12502386B2, “Nitrogen-containing heterocyclic compound and use thereof” (SHANGHAI SHIJIANG BIOTECHNOLOGY CO., LTD, priority 2022, dated 2025).

Common to all, as to format: cell-based, human
The subject of one test is Con-NCI-H82 cell. Briefly: CellTiter-Glo cell viability, Con-NCI-H82 cell (empty-vector control). The note with it: Homo sapiens, NCI-H82, NCI-H82 transfected with empty virus vector (control), intracellular ATP, read-out: inhibitory effect on Con-NCI-H82 (IC50). For orientation: ATP-based viability assays read luminescence as a measure of living cells.
The test system of another test is ov-NNMT NCI-H82 cell. Kind of test: CellTiter-Glo cell viability, ov-NNMT NCI-H82 cell (NNMT overexpressed). As to conditions: Homo sapiens, NCI-H82, NCI-H82 overexpressing NNMT protein, intracellular ATP, read-out: inhibitory effect on OV-NNMT NCI-H82 (IC50).
The next test concerns sh-DNMT1 NCI-H82 cell. Briefly: CellTiter-Glo cell viability, sh-DNMT1 NCI-H82 cell (DNMT1 knocked down). The note with it: Homo sapiens, NCI-H82, NCI-H82 with DNMT1 knocked down by shRNA, intracellular ATP, read-out: inhibitory effect on sh-DNMT1 NCI-H82 (IC50).

SMILES strings stand for the structures.

One may read the IC50 as the concentration at which inhibition is half-maximal. Turning to `COc1ccc2c(c1OCCN1CCCCC1)C(C)N1CCc3cc4c(cc3C1=C2)OCO4` (stereo not drawn) [AB35443], the results for the IC50 in the test on Con-NCI-H82 cell, in the test on ov-NNMT NCI-H82 cell and in the test on sh-DNMT1 NCI-H82 cell were 20600 nM, 18.1 µM and 20.9 µM, respectively.

For `COc1ccc2c(c1OCCN(C)C)C(C(Cl)(Cl)Cl)N1CCc3cc4c(cc3C1=C2)OCO4` (stereo not drawn) [AB35446], the IC50 in the test on Con-NCI-H82 cell came to 18400 nM; with ov-NNMT NCI-H82 cell, 16.3 µM; in the test with sh-DNMT1 NCI-H82 cell, 17.9 µM.

In the case of `COc1ccc2c(c1OCCCBr)CN1CCc3cc4c(cc3C1=C2)OCO4` [AB35544], the IC50 in the test on Con-NCI-H82 cell stood at 280 nM; in the test with ov-NNMT NCI-H82 cell, 1.02 µM; in the test on sh-DNMT1 NCI-H82 cell it was 2.04 µM.

As to `COc1ccc2c(c1OC)C(C(Cl)(Cl)Cl)N1CCc3cc4c(cc3C1=C2CCCCCCBr)OCO4` (stereo not drawn) [AB35501], the IC50 in the test with Con-NCI-H82 cell was found to be 870 nM; in the test on ov-NNMT NCI-H82 cell, 2.12 µM; in the test with sh-DNMT1 NCI-H82 cell, 2.56 µM.

Regarding `COc1ccc2c(c1OC/C=C(\C)CCC=C(C)C)C(C)N1CCc3cc4c(cc3C1=C2)OCO4` (stereo not drawn) [AB35402], the figures for the IC50 in the test on Con-NCI-H82 cell, with ov-NNMT NCI-H82 cell and with sh-DNMT1 NCI-H82 cell were 880 nM, 2.43 µM and 3.45 µM, respectively.

In the case of `COc1ccc2c(c1OC)C(C)N1CCc3cc4c(cc3C1=C2)OCCO4` (stereo not drawn) [AB31898], the IC50 is 3690 nM in the test on Con-NCI-H82 cell, 8.64 µM with ov-NNMT NCI-H82 cell and 12.1 µM with sh-DNMT1 NCI-H82 cell.

Take `COc1ccc2c(c1OCCF)CN1CCc3cc4c(cc3C1=C2)OCO4` [AB35599]: the IC50 came out at 1380 nM in the test on Con-NCI-H82 cell, 3.43 µM in the test with ov-NNMT NCI-H82 cell and 6.42 µM with sh-DNMT1 NCI-H82 cell.

For `COc1ccc2c(c1N1CCN(C)CC1)C(C(Cl)(Cl)Cl)N1CCc3cc4c(cc3C1=C2)OCO4` (stereo not drawn) [AB35518], the IC50 turned out to be 3520 nM in the test on Con-NCI-H82 cell, 10.1 µM in the test on ov-NNMT NCI-H82 cell and 13.3 µM in the test on sh-DNMT1 NCI-H82 cell.

As for `COc1ccc2c(c1OC)C(C1CCCCC1=O)N1CCc3cc4c(cc3C1=C2)OCO4` (stereo not drawn) [AB36525], the half-inhibitory concentration (IC50) came to 3860 nM with Con-NCI-H82 cell, 3.53 µM in the test with ov-NNMT NCI-H82 cell and 3.96 µM with sh-DNMT1 NCI-H82 cell.

`COc1ccc2c(c1OCCNC(=O)OC(C)(C)C)C(C(Cl)(Cl)Cl)N1CCc3cc4c(cc3C1=C2)OCO4` (stereo not drawn) [AB35416]: the results for the IC50 in the test with Con-NCI-H82 cell, in the test with ov-NNMT NCI-H82 cell and with sh-DNMT1 NCI-H82 cell were 2310 nM, 5.23 µM and 6.35 µM, respectively.

For `COc1ccc2c(c1OCCN1CCCCC1)C(C(Cl)(Cl)Cl)N1CCc3cc4c(cc3C1=C2)OCO4` (stereo not drawn) [AB35420], the IC50 was found to be 4990 nM with Con-NCI-H82 cell, 12.5 µM with ov-NNMT NCI-H82 cell and 18.2 µM with sh-DNMT1 NCI-H82 cell.

Take `COc1ccc2c(c1OCCCCl)C(C)N1CCc3cc4c(cc3C1=C2)OCO4` (stereo not drawn) [AB35456]: the results for the half-inhibitory concentration (IC50) in the test on Con-NCI-H82 cell, in the test with ov-NNMT NCI-H82 cell and in the test with sh-DNMT1 NCI-H82 cell were 2360 nM, 6.72 µM and 8.42 µM, respectively.

As for `CCCCCCC1c2c(ccc(OC)c2OC)C=C2c3cc4c(cc3CCN21)OCCO4` (stereo not drawn) [AB31880], the results for the IC50 with Con-NCI-H82 cell, in the test with ov-NNMT NCI-H82 cell and in the test on sh-DNMT1 NCI-H82 cell were 990 nM, 3.32 µM and 3.86 µM, respectively.

Take `COc1ccc2c(c1OC/C=C(\C)CCC=C(C)C)C(C1CCCC1)N1CCc3cc4c(cc3C1=C2)OCO4` (stereo not drawn) [AB35438]: the IC50 with Con-NCI-H82 cell was 720 nM; in the test with ov-NNMT NCI-H82 cell it was 2.12 µM; in the test on sh-DNMT1 NCI-H82 cell it was 3.22 µM.

Turning to `C1=C2c3cc4c(cc3CCN2C(C2CCCC2)c2cc3c(cc21)OCO3)OCO4` (stereo not drawn) [AB35467], the half-inhibitory concentration (IC50) in the test on Con-NCI-H82 cell worked out at 5640 nM; in the test on ov-NNMT NCI-H82 cell, 13.3 µM; with sh-DNMT1 NCI-H82 cell it was 15.4 µM.

For `COc1ccc2c(c1N1CCC(Cl)CC1)CN1CCc3cc4c(cc3C1=C2)OCCO4` [AB35550], the IC50 came to 2120 nM with Con-NCI-H82 cell, 4.69 µM with ov-NNMT NCI-H82 cell and 4.58 µM with sh-DNMT1 NCI-H82 cell.

As for `COc1ccc2c(c1OC)C(C1CCCC1)N1CCc3cc4c(cc3C1=C2CCCCCCBr)OCO4` (stereo not drawn) [AB35523], the IC50 was 1020 nM with Con-NCI-H82 cell, 2.99 µM in the test with ov-NNMT NCI-H82 cell and 2.86 µM in the test with sh-DNMT1 NCI-H82 cell.

In the case of `COc1ccc2c(c1OCCCBr)CN1CCc3cc4c(cc3C1C2)OCO4` (stereo not drawn) [AB31878], the IC50 in the test with Con-NCI-H82 cell came to 8230 nM; with ov-NNMT NCI-H82 cell it was 7.98 µM; in the test on sh-DNMT1 NCI-H82 cell, 8.46 µM.

On to `COc1ccc2c(c1OC)C(CC(C)=O)N1CCc3cc4c(cc3C1=C2)OCO4` (stereo not drawn) [AB36472], for which the half-maximal inhibitory concentration (IC50) was found to be 4280 nM with Con-NCI-H82 cell, 4.32 µM with ov-NNMT NCI-H82 cell and 4.11 µM with sh-DNMT1 NCI-H82 cell.

Take `CCCCCCC1=C2c3cc4c(cc3CCN2C(C2CCCC2)c2c1ccc(OC)c2OC)OCO4` (stereo not drawn) [AB35489]: the IC50 came to 820 nM in the test on Con-NCI-H82 cell, 3.78 µM with ov-NNMT NCI-H82 cell and 3.56 µM in the test on sh-DNMT1 NCI-H82 cell.

Consider `CCCCCCC1c2c(ccc3c2OCO3)C=C2c3cc4c(cc3CCN21)OCO4` (stereo not drawn) [AB35426], for which the IC50 with Con-NCI-H82 cell was 460 nM; in the test on ov-NNMT NCI-H82 cell, 1.56 µM; with sh-DNMT1 NCI-H82 cell, 2.12 µM.

For `CC1c2c(ccc3c2OCO3)C(CCCc2ccccc2)=C2c3cc4c(cc3CCN21)OCO4` (stereo not drawn) [AB35427], the IC50 in the test with Con-NCI-H82 cell came out at 560 nM; in the test with ov-NNMT NCI-H82 cell, 1.82 µM; in the test with sh-DNMT1 NCI-H82 cell, 3.24 µM.

`CCCCCC1=C2c3cc4c(cc3CCN2C(C)c2c1ccc(OC)c2OC)OCO4` (stereo not drawn) [AB35422]: the IC50 in the test with Con-NCI-H82 cell was 2320 nM; in the test on ov-NNMT NCI-H82 cell, 5.48 µM; in the test on sh-DNMT1 NCI-H82 cell, 4.94 µM.

Consider `COc1ccc2c(c1OCCCF)C(C)N1CCc3cc4c(cc3C1=C2)OCO4` (stereo not drawn) [AB35485], for which the IC50 with Con-NCI-H82 cell is 4550 nM; in the test with ov-NNMT NCI-H82 cell it was 12.3 µM; in the test with sh-DNMT1 NCI-H82 cell, 16.8 µM.

`COc1ccc2c(c1OC)CN1CCc3cc4c(cc3C1=C2Cc1ccc(C(C)C)cc1)OCO4` [AB31870]: the IC50 in the test on Con-NCI-H82 cell came to 530 nM; in the test on ov-NNMT NCI-H82 cell it was 1.32 µM; with sh-DNMT1 NCI-H82 cell, 2.54 µM.

On to `COc1ccc2c(c1OC(=O)CC13CC4CC(CC(C4)C1)C3)C(C)N1CCc3cc4c(cc3C1=C2)OCO4` (stereo not drawn) [AB31896], for which the IC50 was found to be 1310 nM in the test with Con-NCI-H82 cell, 4.53 µM in the test on ov-NNMT NCI-H82 cell and 3.98 µM with sh-DNMT1 NCI-H82 cell.

Consider `CCOc1c(OC)ccc2c1CN1CCc3cc4c(cc3C1=C2)OCO4` [AB35594], for which the IC50 was 1260 nM in the test with Con-NCI-H82 cell, 4.12 µM in the test on ov-NNMT NCI-H82 cell and 3.98 µM in the test with sh-DNMT1 NCI-H82 cell.

Take `COc1ccc2c(c1Cl)CN1CCc3cc4c(cc3C1=C2)OCO4` [AB36450]: the IC50 with Con-NCI-H82 cell is 2080 nM; with ov-NNMT NCI-H82 cell, 5.32 µM; in the test with sh-DNMT1 NCI-H82 cell it was 8.34 µM.

On to `CCCCCC1=C2c3cc4c(cc3CCN2C(C2CCCC2)c2c1ccc(OC)c2OC)OCO4` (stereo not drawn) [AB35522], for which the results for the IC50 in the test with Con-NCI-H82 cell, in the test with ov-NNMT NCI-H82 cell and in the test on sh-DNMT1 NCI-H82 cell were 1360 nM, 3.68 µM and 5.64 µM, respectively.

`COc1ccc2c(c1NCCc1ccccc1)C(C1CCCC1)N1CCc3cc4c(cc3C1=C2)OCO4` (stereo not drawn) [AB35457]: the values for the IC50 with Con-NCI-H82 cell, in the test with ov-NNMT NCI-H82 cell and in the test with sh-DNMT1 NCI-H82 cell were 960 nM, 2.56 µM and 2.33 µM, respectively.

Regarding `COc1ccc2c(c1N1CCC(NC(=O)OC(C)(C)C)CC1)C(C(Cl)(Cl)Cl)N1CCc3cc4c(cc3C1=C2)OCO4` (stereo not drawn) [AB35465], the IC50 with Con-NCI-H82 cell worked out at 2690 nM; in the test on ov-NNMT NCI-H82 cell, 9.32 µM; with sh-DNMT1 NCI-H82 cell, 8.84 µM.

For `COc1ccc2c(c1OCCCCCl)C(C(Cl)(Cl)Cl)N1CCc3cc4c(cc3C1=C2)OCO4` (stereo not drawn) [AB35496], the results for the IC50 in the test on Con-NCI-H82 cell, with ov-NNMT NCI-H82 cell and in the test with sh-DNMT1 NCI-H82 cell were 2920 nM, 6.32 µM and 8.24 µM, respectively.

For the compound `CCCCCCC1=C2c3cc4c(cc3CCN2C(C(Cl)(Cl)Cl)c2c1ccc(OC)c2OC)OCO4` (stereo not drawn) [AB35508], the IC50 is 740 nM with Con-NCI-H82 cell, 3.12 µM with ov-NNMT NCI-H82 cell and 2.98 µM with sh-DNMT1 NCI-H82 cell.

Turning to `COc1ccc2c(c1OC)C(C(Cl)(Cl)Cl)N1CCc3cc4c(cc3C1=C2CCCCc1ccccc1)OCO4` (stereo not drawn) [AB35469], the IC50 with Con-NCI-H82 cell is 790 nM; with ov-NNMT NCI-H82 cell, 3.52 µM; in the test on sh-DNMT1 NCI-H82 cell, 5.32 µM.

For the compound `COc1ccc2c(c1OC)C(C(Cl)(Cl)Cl)N1CCc3cc4c(cc3C1=C2Cc1ccccn1)OCO4` (stereo not drawn) [AB35447], the IC50 in the test with Con-NCI-H82 cell came to 26200 nM; with ov-NNMT NCI-H82 cell it was 25.7 µM; with sh-DNMT1 NCI-H82 cell, 24.3 µM.
